Consider 21 compounds from patent US9969742B2, “Imidazotriazinone compounds” (Ironwood Pharmaceuticals, Inc., priority 2012, dated 2018).

A word on the IC50: it is the concentration that inhibits the measured activity by half.

Type in all cases: biochemical
One experiment has as its target T1, PDE1B (Homo sapiens, UniProt Q01064).
T1 construct: purchased Reaction Biology Corporation, Malvern, Pa
Kind of experiment: Phosphodiesterase enzyme screening assay, PDE1B. The note with it: Table 1; ratio of IC50 values; value greater than 1 indicates greater selectivity for PDE9A2. An excerpt: (§1) Compounds of the invention were screened against PDE1A, PDE1B, PDE2A, PDE3A, PDE3B, PDE4A1A, PDE4B1, PDE4D3, PDE5A1, PDE6C, PDE7A, PDE8A1, PDE9A2, PDE10A2 AND PDE11A isoforms of the phosphodiesterase enzyme to determine activity and overall selectivity through comparative analysis. […] Where 8-methoxy-IBMX and Zaprinast were used as reference inhibitors.
(§2) The phosphodiesterase enzyme isoforms were obtained from a commercial retailer (Reaction Biology Corporation, Malvern, Pa.) for use in the instant screening assay.
(§3) The analysis was completed using the Caliper LabChip 3000 and a 12-sipper LabChip. LabChip assays are separations-based, meaning that the product and substrate are electrophoretically separated, thereby minimizing interferences and yielding the highest data quality available on any screening platform. […] High Z′ values, few false positives, few false negatives and analytical quality reproducibility are the reasons cited for the increasing reliance on the LabChip assays.
(§4) The off-chip incubation mobility-shift phosphodiesterase assay uses a microfluidic chip to measure the conversion of a fluorescent cyclic AMP substrate to a 5′-AMP product, or a cyclic GMP substrate to a 5′-GMP product. The reaction mixture, from a microtiter plate well, is introduced through a capillary sipper onto the chip, where the fluorescent substrate and product are separated by electrophoresis and detected via laser-induced fluorescence. […] The precision of microfluidics allows researchers to detect subtle interactions between drug candidates and therapeutic targets.
(§5) Reactions were carried out in 100 mM HEPES (pH 7.5), 5 mM MgCl2, 1 mM DTT, 0.003% Brij, 4.0 μM cGMP substrate. The reaction was started by addition of cGMP or cAMP and incubated for 1 hour at R.T. The reaction was terminated by the addition of stop buffer containing 100 mM HEPES (pH 7.5), 15 mM EDTA, 0.015% Brij-35, 5% DMSO. Cyclic AMP/GMP substrate and 5′-AMP/5′-GMP product were separated by charge using electrophoretic mobility shift. Product formed was compared to control wells to determine inhibition or enhancement of enzyme activity.
(§6) Data points were averages of quadruplicate wells and error bars represented the SEM for each point.

The target of the next experiment is T2, PDE1A (Homo sapiens, UniProt P54750).
T2 construct: purchased Reaction Biology Corporation, Malvern, Pa
Kind of experiment: Phosphodiesterase enzyme screening assay, PDE1A. The note with it: Table 1; ratio of IC50 values; value greater than 1 indicates greater selectivity for PDE9A2.
Text: as §1, §2, §3, §4, §5, §6

The next experiment has as its target T3, PDE9A2 (Homo sapiens, UniProt O76083).
T3 construct: purchased Reaction Biology Corporation, Malvern, Pa
Kind of experiment: Phosphodiesterase enzyme screening assay, PDE9A2. To be noted: 4.0 μM cGMP substrate, 1 hour at R.T., read-out: Band (PDE9A2 IC50). The method in brief:
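Recombinant enzymes were run in 100 mM HEPES pH 7.5, 5 mM MgCl2, 1 mM DTT, 0.003% Brij with 4.0 μM cGMP substrate, started with cGMP or cAMP, 1 h at RT, and stopped with EDTA. Fluorescent substrate and product were separated by microfluidic mobility shift.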

Like-named read-outs stand apart in the source and are kept apart here. Some results are limits rather than exact numbers.

T1 sequence (Q01064 whole entry): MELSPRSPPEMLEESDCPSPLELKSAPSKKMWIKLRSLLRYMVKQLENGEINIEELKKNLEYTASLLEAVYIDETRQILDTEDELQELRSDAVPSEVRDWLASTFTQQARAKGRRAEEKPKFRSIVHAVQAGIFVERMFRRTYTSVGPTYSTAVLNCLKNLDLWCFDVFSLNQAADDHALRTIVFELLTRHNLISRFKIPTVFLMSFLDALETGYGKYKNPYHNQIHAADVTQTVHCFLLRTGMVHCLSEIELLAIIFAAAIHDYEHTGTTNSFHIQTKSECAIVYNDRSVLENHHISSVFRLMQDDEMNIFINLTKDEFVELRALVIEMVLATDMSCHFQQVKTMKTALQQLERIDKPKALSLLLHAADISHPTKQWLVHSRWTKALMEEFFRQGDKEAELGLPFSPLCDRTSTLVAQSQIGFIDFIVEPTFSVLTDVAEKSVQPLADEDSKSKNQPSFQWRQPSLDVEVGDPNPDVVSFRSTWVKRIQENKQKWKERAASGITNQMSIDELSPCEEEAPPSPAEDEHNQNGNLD
T3 sequence (O76083 1-533 isoform O76083-2): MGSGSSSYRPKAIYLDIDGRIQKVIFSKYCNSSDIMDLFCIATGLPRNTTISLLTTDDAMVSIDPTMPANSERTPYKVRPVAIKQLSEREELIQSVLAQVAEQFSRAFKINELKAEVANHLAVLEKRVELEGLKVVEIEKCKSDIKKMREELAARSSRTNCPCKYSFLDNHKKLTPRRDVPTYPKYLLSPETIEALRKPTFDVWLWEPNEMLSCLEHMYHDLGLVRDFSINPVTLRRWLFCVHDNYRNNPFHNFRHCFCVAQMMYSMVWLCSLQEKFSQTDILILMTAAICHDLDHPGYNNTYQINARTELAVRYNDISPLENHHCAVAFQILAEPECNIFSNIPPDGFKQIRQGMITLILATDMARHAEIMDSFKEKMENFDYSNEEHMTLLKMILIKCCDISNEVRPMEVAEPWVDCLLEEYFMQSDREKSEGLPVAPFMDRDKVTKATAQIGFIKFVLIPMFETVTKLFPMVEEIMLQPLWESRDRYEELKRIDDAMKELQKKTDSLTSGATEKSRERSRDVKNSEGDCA
T2 sequence (P54750 whole entry): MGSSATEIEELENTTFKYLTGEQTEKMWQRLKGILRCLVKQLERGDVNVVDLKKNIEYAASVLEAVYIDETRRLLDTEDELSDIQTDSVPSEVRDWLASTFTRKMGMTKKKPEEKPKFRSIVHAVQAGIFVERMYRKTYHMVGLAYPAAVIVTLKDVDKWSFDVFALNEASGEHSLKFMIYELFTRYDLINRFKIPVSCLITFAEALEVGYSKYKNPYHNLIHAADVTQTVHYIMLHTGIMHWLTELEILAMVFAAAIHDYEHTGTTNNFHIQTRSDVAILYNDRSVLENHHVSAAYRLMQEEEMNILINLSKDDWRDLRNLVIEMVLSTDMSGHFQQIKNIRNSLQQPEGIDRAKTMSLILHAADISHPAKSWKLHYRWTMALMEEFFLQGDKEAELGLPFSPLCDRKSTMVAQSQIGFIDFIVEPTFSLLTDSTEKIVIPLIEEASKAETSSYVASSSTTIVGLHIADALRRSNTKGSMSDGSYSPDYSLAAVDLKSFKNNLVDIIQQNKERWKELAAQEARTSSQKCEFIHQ

Regarding `CC1CN(Cc2ccccc2)CC1c1nn2c(C3CCCOC3)ncc2c(=O)[nH]1` (single isomer, unassigned) [2-((3,4-trans)-1-benzyl-4-methylpyrrolidin-3-yl)-7-(tetrahydro-2H-pyran-3-yl)imidazo[5,1-f][1,2,4]triazin-4(3H)-one], the “PDE1B selectivity (versus PDE9A2)” value at PDE1B is recorded as 38. Besides, on PDE1A, the “PDE1A selectivity (versus PDE9A2)” value was 28.

`Cc1cc(F)ccc1-c1ncc2c(=O)[nH]c(C3CN(Cc4ccccc4)CC3C)nn12` (single isomer, unassigned; (+)) [(+)-2-((3,4-trans)-1-benzyl-4-methylpyrrolidin-3-yl)-7-(4-fluoro-2-methylphenyl)imidazo[5,1-f][1,2,4]triazin-4(3H)-one]: the “PDE1B selectivity (versus PDE9A2)” value on PDE1B was 225. The “PDE1A selectivity (versus PDE9A2)” value at PDE1A is listed as 257.

Take `Cc1ccc(Cl)cc1-c1ncc2c(=O)[nH]c(C3CN(Cc4ccccc4)CC3C)nn12` (single isomer, unassigned; (+)) [(+)-2-((3,4-trans)-1-benzyl-4-methylpyrrolidin-3-yl)-7-(5-chloro-2-methylphenyl)imidazo[5,1-f][1,2,4]triazin-4(3H)-one]: at PDE1B, the “PDE1B selectivity (versus PDE9A2)” value is 142. On PDE1A, the “PDE1A selectivity (versus PDE9A2)” value was 276.

In the case of `Cc1ccc(F)cc1-c1ncc2c(=O)[nH]c(C3CN(Cc4ccccc4)CC3C)nn12` (single isomer, unassigned; (+)) [(+)-2-((3,4-trans)-1-benzyl-4-methylpyrrolidin-3-yl)-7-(5-fl] [(+)-2-((3,4-trans)-1-benzyl-4-methylpyrrolidin-3-yl)-7-(5-fluoro-2-methylphenyl)imidazo[1,5-f][1,2,4]triazin-4(3H)-one], the “PDE1B selectivity (versus PDE9A2)” value at PDE1B is reported as 109. The “PDE1A selectivity (versus PDE9A2)” value at PDE1A is recorded as 247.

Regarding `CC1CN(Cc2ccccc2)CC1c1nn2c(C3CCOCC3)ncc2c(=O)[nH]1` (single isomer, unassigned; (+)) [(+)-2-((3,4-trans)-1-benzyl-4-methylpyrrolidin-3-yl)-7-(tetr] [(+)-2-((3,4-trans)-1-benzyl-4-methylpyrrolidin-3-yl)-7-(tetrahydro-2H-pyran-4-yl)imidazo[1,5-f][1,2,4]triazin-4(3H)-one], at PDE1B, the “PDE1B selectivity (versus PDE9A2)” value came out at 5. Also, on PDE1A, the “PDE1A selectivity (versus PDE9A2)” value was 5.

As for `CC1CN(C(C)c2ccccc2)CC1c1nn2c(C3CCOCC3)ncc2c(=O)[nH]1` (single isomer, unassigned; (+)) [(+)-2-((3,4-trans)-4-methyl-1-((S)-1-phenylethyl)pyrrolidin-], the “PDE1B selectivity (versus PDE9A2)” value on PDE1B turned out to be 99. The “PDE1A selectivity (versus PDE9A2)” value on PDE1A came out at 51.

As to `CC1CN(Cc2cnccn2)CC1c1nn2c(C3CCOCC3)ncc2c(=O)[nH]1` (single isomer, unassigned; (+)) [(+)-2-((3,4-trans)-4-methyl-1-(pyrazin-2-ylmethyl)pyrrolidin-3-yl)-7-(tetrahydro-2H-pyran-4-yl)imidazo[5,1-f][1,2,4]triazin-4(3H)-one], the “PDE1B selectivity (versus PDE9A2)” value at PDE1B is 178. Besides, the “PDE1A selectivity (versus PDE9A2)” value on PDE1A is 202.

`CC1CN(Cc2ncccn2)CC1c1nn2c(C3CCOCC3)ncc2c(=O)[nH]1` (single isomer, unassigned; (+)) [(+)-2-((3,4-trans)-4-methyl-1-(pyrimidin-2-ylmethyl)pyrrolid] [(+)-2-((3,4-trans)-4-methyl-1-(pyrimidin-2-ylmethyl)pyrrolidin-3-yl)-7-(tetrahydro-2H-pyran-4-yl)imidazo[5,1-f][1,2,4]triazin-4(3H)-one]: the “PDE1B selectivity (versus PDE9A2)” value on PDE1B was 386. At PDE1A, the “PDE1A selectivity (versus PDE9A2)” value stood at 393.

With `CC1CN(Cc2ccccn2)CC1c1nn2c(C3CCOCC3)ncc2c(=O)[nH]1` (single isomer, unassigned; (-)) [(−)-2-((3,4-trans)-4-methyl-1-(pyridin-2-ylmethyl)pyrrolidin-3-yl)-7-(tetrahydro-2H-pyran-4-yl)imidazo[5,1-f][1,2,4]triazin-4(3H)-one], on PDE9A2 (Table 1, 10 concentrations), the 50% inhibitory concentration (IC50) is < 1 µM.

As for `CC1CN(C(=O)c2ncccn2)CC1c1nn2c(C3CCOCC3)ncc2c(=O)[nH]1` (single isomer, unassigned; (-)) [(−)-2-((3,4-trans)-4-methyl-1-(pyrimidine-2-carbonyl)pyrrolidin-3-yl)-7-(tetrahydro-2H-pyran-4-yl)imidazo[5,1-f][1,2,4]triazin-4(3H)-one], the half-inhibitory concentration (IC50) at PDE9A2 (Table 1, 10 concentrations) is < 1 µM.

With `CC1CN(C(=O)c2ccncn2)CC1c1nn2c(C3CCOCC3)ncc2c(=O)[nH]1` (single isomer, unassigned; (-)) [(−)-2-((3,4-trans)-4-methyl-1-(pyrimidine-4-carbonyl)pyrrolidin-3-yl)-7-(tetrahydro-2H-pyran-4-yl)imidazo[5,1-f][1,2,4]triazin-4(3H)-one], the IC50 at PDE9A2 (Table 1, 10 concentrations) is < 1 µM.

In the case of `CC1CN(C(=O)c2cncnc2)CC1c1nn2c(C3CCOCC3)ncc2c(=O)[nH]1` (single isomer, unassigned; (-)) [(−)-2-((3,4-trans)-4-methyl-1-(pyrimidine-5-carbonyl)pyrrolidin-3-yl)-7-(tetrahydro-2H-pyran-4-yl)imidazo[5,1-f][1,2,4]triazin-4(3H)-one], the IC50 on PDE9A2 (Table 1, 10 concentrations) is < 1 µM.

Turning to `CC1CN(C(=O)c2ccccn2)CC1c1nn2c(C3CCOCC3)ncc2c(=O)[nH]1` (single isomer, unassigned; (-)) [(−)-2-((3,4-trans)-4-methyl-1-picolinoylpyrrolidin-3-yl)-7-(tetrahydro-2H-pyran-4-yl)imidazo[5,1-f][1,2,4]triazin-4(3H)-one], the IC50 at PDE9A2 (Table 1, 10 concentrations) is < 1 µM.

As to `CC1CN(Cc2ccccc2C#N)CC1c1nn2c(C3CCOCC3)ncc2c(=O)[nH]1` (single isomer, unassigned; (-)) [(−)-2-(((3,4-trans)-3-methyl-4-(4-oxo-7-(tetrahydro-2H-pyran-4-yl)-3,4-dihydroimidazo[5,1-f][1,2,4]triazin-2-yl)pyrrolidin-1-yl)methyl)benzonitrile], the IC50 on PDE9A2 (Table 1, 10 concentrations) is < 1 µM.

As for `CC1CN(S(=O)(=O)c2ccccc2C#N)CC1c1nn2c(C3CCOCC3)ncc2c(=O)[nH]1` (single isomer, unassigned; (-)) [(−)-2-(((3,4-trans)-3-methyl-4-(4-oxo-7-(tetrahydro-2H-pyran-4-yl)-3,4-dihydroimidazo[5,1-f][1,2,4]triazin-2-yl)pyrrolidin-1-yl)sulfonyl)benzonitrile], the half-maximal inhibitory concentration (IC50) on PDE9A2 (Table 1, 10 concentrations) is < 1 µM.

`CC1CN(Cc2cccc(C#N)c2)CC1c1nn2c(C3CCOCC3)ncc2c(=O)[nH]1` (single isomer, unassigned; (-)) [(−)-3-(((3,4-trans)-3-methyl-4-(4-oxo-7-(tetrahydro-2H-pyran-4-yl)-3,4-dihydroimidazo[5,1-f][1,2,4]triazin-2-yl)pyrrolidin-1-yl)methyl)benzonitrile]: the concentration for half-maximal inhibition (IC50) at PDE9A2 (Table 1, 10 concentrations) was < 1 µM.

Take `Cc1ccc(F)cc1-c1ncc2c(=O)[nH]c(C3CN(Cc4ncccn4)CC3C)nn12` (single isomer, unassigned; (-)) [(−)-7-(5-fluoro-2-methylphenyl)-2-((3,4-trans)-4-methyl-1-(pyrimidin-2-ylmethyl)pyrrolidin-3-yl)imidazo[1,5-f][1,2,4]triazin-4(3H)-one]: the IC50 on PDE9A2 (Table 1, 10 concentrations) was 1 to 10 µM.

For `CC1CN(Cc2ccccc2)CC1c1nn2c(C3CCN(C(=O)OC(C)(C)C)CC3)ncc2c(=O)[nH]1` (single isomer, unassigned; (-)) [(−)-tert-butyl 4-(2-((3,4-trans)-1-benzyl-4-methylpyrrolidin-3-yl)-4-oxo-3,4-dihydroimidazo[1,5-f][1,2,4]triazin-7-yl)piperidine-1-carboxylate], the IC50 at PDE9A2 (Table 1, 10 concentrations) was > 10 µM.

As for `CC1CN(Cc2nc3ccccn3n2)CC1c1nn2c(CC(F)(F)F)ncc2c(=O)[nH]1` (stereo not drawn) [2-((3,4-trans)-1-([1,2,4]triazolo[1,5-a]pyridin-2-ylmethyl)-4-methylpyrrolidin-3-yl)-7-(2,2,2-trifluoroethyl)imidazo[5,1-f][1,2,4]triazin-4(3H)-one], the IC50 on PDE9A2 is < 1 µM.

In the case of “(+)-2-((3,4-trans)-1-benzyl-4-methylpyrrolidin-3-yl)-7-(piperidin-4-yl)imidazo[1,5-f][1,2,4]triazin-4(3H)-one”, the IC50 on PDE9A2 (Table 1, 10 concentrations) fell in the range of 1 to 10 µM.

For “(−)-2-((3,4-trans)-1-benzyl-4-methylpyrrolidin-3-yl)-7-(piperidin-4-yl)imidazo[1,5-f][1,2,4]triazin-4(3H)-one”, at PDE9A2 (Table 1, 10 concentrations), the IC50 is > 10 µM.
